Source: patent publication US11203772B2, “Chemoenzymatic synthesis of structurally homogeneous ultra-low molecular weight heparins” (The University of North Carolina at Chapel Hill, priority 2010, dated 2021)

How the values were obtained:
bovine factor Xa = assay: Inhibition of factor Xa activity (anti-Xa, chromogenic substrate S-2765, with AT); assay type: biochemical; conditions: with human AT, read-out: IC50 value, in vitro anti-Xa activity
Experimental: Inhibition effect of the ULMW heparin compounds on the activity of factor Xa. Assays were based on a previously published method (Zhang et al., 2001; Duncan et al., 2004). Briefly, bovine factor Xa (Sigma, St. Louis, Mo., United States of America) was diluted to 5 U/ml with PBS containing 1 mg/ml BSA. Human AT (Cutter Biological) was diluted with PBS containing 1 mg/ml BSA to give a stock solution at the concentration of 27 μM. The chromogenic substrates, S-2765 was from Diapharma and made up at 1 mM in water. The oligosaccharide (ARIXTRA® synthetic ULMW heparin pentasaccharide, ULMW heparin construct 1 and 2) was dissolved in PBS at various concentrations (0.5 to 50 nM). The reaction mixture, which included 25 μl of AT stock solution and 25 μl of the solution containing the sample, was incubated at 37° C. for 2 min. Factor Xa (25 μl) was added. After incubating 37° C. for 4 min, 25 μl of S-2765 was added. The absorbance of the reaction mixture was measured at 405 nm continuously for 10 min. The absorbance values were plotted against the reaction time. The initial reaction rates as a function of concentration were used to calculate the IC50 values.
The activity of Xa was determined by the rate of the increase of the absorbance at 405 nm. The activity without drugs was defined as 100%. […]

factor Xa [1] = conditions: rabbit, in vivo, sc, 120 ug/kg
factor Xa [2] = assay: Anticoagulant activity in vivo: anti-Xa activity of rabbit plasma samples; conditions: rabbits, subcutaneous, 120 μg/kg; compared with one another
antithrombin (AT) = target: T1, antithrombin (AT) (Homo sapiens, UniProt P01008); assay: Binding to antithrombin (AT) by affinity coelectrophoresis; conditions: affinity co-electrophoresis, 35S-labeled compound
T1 construct: purchased Cutter Biological
T1 sequence (P01008 33-464): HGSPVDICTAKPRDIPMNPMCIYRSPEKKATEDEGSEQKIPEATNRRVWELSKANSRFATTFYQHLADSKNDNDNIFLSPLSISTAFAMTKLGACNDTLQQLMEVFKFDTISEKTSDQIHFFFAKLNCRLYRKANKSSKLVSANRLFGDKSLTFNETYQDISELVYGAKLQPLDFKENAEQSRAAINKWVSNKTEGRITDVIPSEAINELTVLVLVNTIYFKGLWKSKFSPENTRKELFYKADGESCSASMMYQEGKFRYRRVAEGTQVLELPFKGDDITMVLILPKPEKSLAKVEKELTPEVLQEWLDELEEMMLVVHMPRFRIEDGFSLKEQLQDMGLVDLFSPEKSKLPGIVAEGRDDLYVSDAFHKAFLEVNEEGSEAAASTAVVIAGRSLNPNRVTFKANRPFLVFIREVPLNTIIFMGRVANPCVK
Experimental: The dissociation constant (Kd) of each sample and AT was determined using affinity co-electrophoresis (Lee & Lander, 1991). Approximately 4000-5000 cpm of antithrombin-binding ^35S-labeled ULMW heparin construct 1 or 2 was loaded per lane with zones of AT at concentrations 0, 4, 8, 16, 32, 60, 120, 240 and 500 nM. The gel was performed at 400 mA for 2 hours, dried and analyzed on a Phospholmager Storm 860 (Amersham Biosciences, Uppsala, Sweden). The retardation coefficient was calculated at R=(M0-M)/M0, where M0 is the mobility of the polysaccharide through the zone without AT, and M is the mobility of the sample through each separation zone. The retardation coefficient was then plotted against the retardation coefficient divided by its respective concentration of AT. The slope of the line represents −1/Kd.

Row | IC50 (bovine factor Xa) [nM] | area under the curve (AUC), anti-Xa activity of plasma samples (factor Xa [1]) | Kd (antithrombin (AT)) [nM] | SMILES | pharmacodynamic (PD) profiles (factor Xa [2])
1 | 3 | 457 |  | CO[C@H]1O[C@H](COS(=O)(=O)O)[C@@H](O[C@@H]2O[C@@H](C(=O)O)[C@@H](O[C@H]3O[C@H](COS(=O)(=O)O)[C@@H](O[C@@H]4O[C@H](C(=O)O)[C@@H](O[C@H]5O[C@H](COS(=O)(=O)O)[C@@H](O)[C@H](O)[C@H]5NS(=O)(=O)O)[C@H](O)[C@H]4O)[C@H](OS(=O)(=O)O)[C@H]3NS(=O)(=O)O)[C@H](O)[C@H]2OS(=O)(=O)O)[C@H](O)[C@H]1NS(=O)(=O)O [ARIXTRA®, fondaparinux sodium, reference compound] | very similar
2 | 3.6 | 802 | 9.1 ± 0.2 | O=C(O)C1OC(OC2C(COS(=O)(=O)O)OC(OC3C(C(=O)O)OC(OC4C(COS(=O)(=O)O)OC(OC5C(C(=O)O)OC(OC6C(CO)OC(CO)C6O)C(O)C5O)C(NS(=O)(=O)O)C4O)C(OS(=O)(=O)O)C3O)C(NS(=O)(=O)O)C2OS(=O)(=O)O)C(O)C(O)C1OC1OC(COS(=O)(=O)O)C(O)C(O)C1NS(=O)(=O)O (stereo not shown) [construct 2] | very similar
